Tests used:
[1] = Optical property of dyes in DMSO (Table 1); assay type: physicochemical; conditions: for Optical Property (in DMSO) Excitation: unit assumed
HDAC1-Nluc = biological target: T1, HDAC1-Nluc (Homo sapiens, UniProt Q13547); assay: Direct-luciferase-detection thermal shift assay, HDAC1-Nluc (Example 7); assay type: binding; conditions: HeLa cells then digitonin, 10 uL of 1 mM stock per well
T1 construct: NanoLuc luciferase (Nluc); expressed in transfected cells; host or cells: HeLa
Protocol: (§1) The cells were seeded into 96-well tall-chimney PCR plate (Fisherbrand) at a density of 2×10^4 cells/well in a 90 uL/well volume and treated with 10 uL of 10% DMSO (Sigma) or 10 uL of a 1 mM stock solution of test compound in 10% DMSO. […] The plates were placed into a thermal cycler (MW Research) where the samples were heated individually at different temperatures spanning a gradient of 42-66° C. across the plate for 3 minutes followed by cooling at 22° C. for 3 minutes. 100 uL/well was then transferred to a tissue culture plate (Corning), and luminescence was measured on a BMG Clariostar luminometer equipped with a 450 nm BP filter. Data was normalized by relating RLU signals to the RLU of the lowest temperature for the respective sample.

Nluc-ABL1 = biological target: T2, Nluc-ABL1 (Homo sapiens, UniProt P00519); assay: Direct-luciferase-detection thermal shift assay, compound selectivity, Nluc-ABL1 (Example 6); assay type: binding; conditions: Nluc-ABL1, HeLa cells then digitonin, 10 uL of 1 mM stock per well
T2 construct: NanoLuc luciferase (Nluc); expressed in transfected cells; host or cells: HeLa
Protocol: as §1, with “HeLa cells were transfected separately with CDK2-Nluc or Nluc-ABL1 DNA at a 1:100 DNA ratio and incubated overnight. […] The cells” for “The cells”, “plates were then incubated for ½ hour in a humidified, 37° C./5% CO2 incubator prior to addition of 10 uL/well of a 0.5 mg/ml solution of digitonin (Sigma) and 10% DMSO (Sigma). The plates were placed into” for “plates were placed into”, “3 minutes. Furimazine Live Cell Substrate (Promega) was added to a final concentration of 1× in 20 uL/well volume. 100 uL/well” for “3 minutes. 100 uL/well”, “respective sample. Data was then fitted to obtain apparent melting temperature where the protein was precipitating (Tagg values) using the Boltzmann Sigmoidal equation with Graphpad Prism software.” for “respective sample.”

CDK2-Nluc = biological target: T3, CDK2-Nluc (Homo sapiens, UniProt P24941); assay: Direct-luciferase-detection thermal shift assay, compound selectivity, CDK2-Nluc (Example 6); assay type: binding; conditions: HeLa cells then digitonin, 10 uL of 1 mM stock per well
T3 construct: NanoLuc luciferase (Nluc); expressed in transfected cells; host or cells: HeLa
Protocol: as §1, with “HeLa cells were transfected separately with CDK2-Nluc or Nluc-ABL1 DNA at a 1:100 DNA ratio and incubated overnight. […] The cells” for “The cells”, “plates were then incubated for ½ hour in a humidified, 37° C./5% CO2 incubator prior to addition of 10 uL/well of a 0.5 mg/ml solution of digitonin (Sigma) and 10% DMSO (Sigma). The plates were placed into” for “plates were placed into”, “3 minutes. Furimazine Live Cell Substrate (Promega) was added to a final concentration of 1× in 20 uL/well volume. 100 uL/well” for “3 minutes. 100 uL/well”, “respective sample. Data was then fitted to obtain apparent melting temperature where the protein was precipitating (Tagg values) using the Boltzmann Sigmoidal equation with Graphpad Prism software.” for “respective sample.”

T1 sequence (Q13547 whole entry): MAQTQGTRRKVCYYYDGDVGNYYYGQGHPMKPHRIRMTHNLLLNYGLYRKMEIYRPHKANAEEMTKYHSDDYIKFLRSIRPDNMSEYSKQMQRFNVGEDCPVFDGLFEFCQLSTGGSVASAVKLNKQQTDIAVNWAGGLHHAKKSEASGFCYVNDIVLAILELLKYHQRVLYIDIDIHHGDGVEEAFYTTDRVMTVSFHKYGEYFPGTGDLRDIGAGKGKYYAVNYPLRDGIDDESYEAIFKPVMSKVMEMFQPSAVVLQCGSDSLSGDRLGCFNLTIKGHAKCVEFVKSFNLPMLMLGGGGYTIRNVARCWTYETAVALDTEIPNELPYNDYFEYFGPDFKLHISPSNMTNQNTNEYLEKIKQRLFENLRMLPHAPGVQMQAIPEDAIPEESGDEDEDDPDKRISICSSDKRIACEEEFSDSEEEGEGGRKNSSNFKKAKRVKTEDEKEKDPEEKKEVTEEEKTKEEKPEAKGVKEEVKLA
T2 sequence (P00519 whole entry): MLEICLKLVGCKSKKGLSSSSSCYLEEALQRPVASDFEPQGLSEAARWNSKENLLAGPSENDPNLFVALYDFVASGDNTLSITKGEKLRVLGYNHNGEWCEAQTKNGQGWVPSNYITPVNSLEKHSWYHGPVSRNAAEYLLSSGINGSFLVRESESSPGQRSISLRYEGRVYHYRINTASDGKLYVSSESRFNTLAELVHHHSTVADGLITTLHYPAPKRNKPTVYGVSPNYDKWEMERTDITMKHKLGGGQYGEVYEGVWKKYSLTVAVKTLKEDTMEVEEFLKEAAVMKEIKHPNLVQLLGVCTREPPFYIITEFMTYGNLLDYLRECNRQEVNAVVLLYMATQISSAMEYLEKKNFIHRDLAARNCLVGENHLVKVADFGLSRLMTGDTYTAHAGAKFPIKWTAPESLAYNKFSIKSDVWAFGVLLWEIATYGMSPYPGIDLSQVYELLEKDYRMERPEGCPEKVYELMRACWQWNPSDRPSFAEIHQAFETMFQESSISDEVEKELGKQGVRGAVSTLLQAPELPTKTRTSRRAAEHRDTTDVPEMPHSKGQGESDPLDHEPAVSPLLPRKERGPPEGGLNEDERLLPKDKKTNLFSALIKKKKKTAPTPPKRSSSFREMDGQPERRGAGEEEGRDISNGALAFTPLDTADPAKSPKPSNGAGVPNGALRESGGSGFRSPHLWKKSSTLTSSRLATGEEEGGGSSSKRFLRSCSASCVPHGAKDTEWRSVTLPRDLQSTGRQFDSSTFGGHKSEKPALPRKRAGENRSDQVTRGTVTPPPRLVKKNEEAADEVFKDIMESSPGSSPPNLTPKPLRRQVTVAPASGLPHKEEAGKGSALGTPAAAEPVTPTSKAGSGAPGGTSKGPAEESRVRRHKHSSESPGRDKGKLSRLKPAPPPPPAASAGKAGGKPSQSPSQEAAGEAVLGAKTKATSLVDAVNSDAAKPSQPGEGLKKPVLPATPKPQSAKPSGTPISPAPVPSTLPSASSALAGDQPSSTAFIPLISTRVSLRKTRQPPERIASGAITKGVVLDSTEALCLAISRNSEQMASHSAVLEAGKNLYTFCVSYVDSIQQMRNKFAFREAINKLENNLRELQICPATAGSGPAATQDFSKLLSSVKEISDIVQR

Row | SMILES | Optical Property (in DMSO) Emission [1] | Optical Property (in DMSO) Excitation [1] | shift in melting temperature (apparent Tagg) compared to the controls (HDAC1-Nluc) | shift in apparent Tagg compared to DMSO controls (Nluc-ABL1) | shift in apparent Tagg compared to DMSO controls (CDK2-Nluc)
1 | CCCCCCN(CCCCCC)c1ccc(/C=C/c2cc[n+](CCCC(=O)NCCCS(=O)(=O)[O-])cc2)cc1 [CS0043] | 468 nm | 620 nm |  |  | 
2 | CCCCCCN(CCCCCC)c1ccc(/C=C/C=C/c2cc[n+](CCC[N+](C)(C)C)cc2)cc1 [CS0155] | 516 nm | 702 nm |  |  | 
3 | CCCCCCN(CCCCCC)c1ccc(/C=C/c2ccc3ccccc3[n+]2C)cc1.[I-] [CS0085] | 532 nm | 640 nm |  |  | 
4 | Nc1ccccc1NC(=O)c1ccc(CNc2nccc(-c3cccnc3)n2)cc1 [Mocetinostat] |  |  | significant shift in melting temperature (apparent Tagg) |  | 
5 | C[S+]([O-])c1ccc(-c2nc(-c3ccncc3)c(-c3ccc(F)cc3)[nH]2)cc1 (stereo not shown) [SB203580] |  |  |  | did not | did not result in a significant shift in apparent Tagg
6 | Cn1c(NC[C@@H](N)Cc2ccccc2)nc(-c2ccncc2)c(-c2ccc3ccccc3c2)c1=O [AMG548] |  |  |  | did not | did not result in a significant shift in apparent Tagg
7 | CCCCCCN(CCCCCC)c1ccc(/C=C/c2cc[n+](CCC(F)(F)C(F)(F)C(F)(F)C(F)(F)C(F)(F)C(F)(F)F)cc2)cc1.[I-] [CS0121, (E)-4-(4-(dihexylamino)styryl)-1-(3,3,4,4,5,5,6,6,7,7,8,8,8-tridecafluorooctyl)pyridin-1-iumiodide] | 480 nm | 620 nm |  |  | 
8 | CCCCCCN(CCCCCC)c1ccc(/C=C/c2cc[n+](CCCS(=O)(=O)[O-])cc2)c2ccccc12 [CS0038] | 462 nm | 654 nm |  |  | 
9 | CCCCCCN(CCCCCC)c1ccc(/C=C/c2ccncc2)cc1 [CS0117, (E)-N,N-Dihexyl-4-(2-(pyridin-4-yl)vinyl)aniline] | 468 nm | 620 nm |  |  | 
10 | Cc1cn(-c2cc(NC(=O)c3ccc(C)c(Nc4nccc(-c5cccnc5)n4)c3)cc(C(F)(F)F)c2)cn1 [Nilotinib] |  |  |  |  | did not result in a significant shift in apparent Tagg
11 | CCCCCCN(CCCCCC)c1ccc(/C=C/c2cc[n+](CCCC(=O)O)cc2)cc1.[Br-] [CS0036, (E)-1-(3-Carboxypropyl)-4-(4-(dihexylamino)styryl)pyridin-1-ium chloride] | 480 nm | 624 nm |  |  | 
12 | CCCCCCN(CCCCCC)c1ccc(/C=C/C=C/c2cc[n+](CCCC(=O)NCCOCCOCCOCCC(=O)OC(C)(C)C)cc2)cc1 [CS0147] | 516 nm | 702 nm |  |  | 
13 | O=C(CCCCCCNC(=O)c1cnc(N(c2ccccc2)c2ccccc2)nc1)NO [ACY1215] |  |  | significant shift in melting temperature (apparent Tagg) |  | 
14 | CCCCCCN(CCCCCC)c1ccc(/C=C/C=C/c2cc[n+](CCCS(=O)(=O)[O-])cc2)cc1 [CS0024] | 516 nm | 702 nm |  |  | 
15 | C[n+]1c(/C=C/c2ccc3ccccc3c2)ccc2ccccc21.[I-] [CS0087] | 400 nm | 550 nm |  |  | 
16 | CCCCCCN(CCCCCC)c1ccc(/C=C/c2cc[n+](CCCC(=O)OCC)cc2)cc1.[Br-] [CS0101, (E)-4-(4-(Dihexylamino)styryl)-1-(4-ethoxy-4-oxobutyl)pyridin-1-ium bromide] | 480 nm | 624 nm |  |  | 
17 | CCCCCCN(CCCCCC)c1ccc(/C=C/c2cccc[n+]2CCCS(=O)(=O)[O-])cc1 [CS0020] | 468 nm | 602 nm |  |  | 
18 | CCCCCCN(CCCCCC)c1ccc(/C=C/c2cc[n+](CCCS(=O)(=O)[O-])c3ccccc23)cc1 [CS0028] | 560 nm | 680 nm |  |  | 
19 | CCCCCCN(CCCCCC)c1ccc(/C=C/c2cc[n+](CC)cc2)cc1.[OH-] [CS0112] | 480 nm | 620 nm |  |  | 
20 | CCCCCCN(CCCCCC)c1ccc(/C=C/c2cc[n+](C34CC5CC(CC(C5)C3)C4)cc2)cc1.[Br-] [CS0096] | 480 nm | 618 nm |  |  | 
21 | CCCCCCN(CCCCCC)c1cccc2c(/C=C/c3cc[n+](CCCS(=O)(=O)[O-])cc3)cccc12 [CS0071] | not fluorescent |  |  |  | 
22 | CCCCCCN(CCCCCC)c1ccc(/C=C/c2ccc3c(ccc[n+]3CCCS(=O)(=O)[O-])c2)cc1 [CS0072] | not fluorescent |  |  |  | 
23 | CCCCCCN(CCCCCC)c1ccc(/C=C/c2cc[n+](CCCC(=O)N(CCCS(=O)(=O)[O-])CCCS(=O)(=O)O)cc2)cc1 [CS0073, (E)-3-(4-(4-(4-(Dihexylamino)styryl)pyridin-1-ium-1-yl)-N-(3-sulfopropyl)butanamido)propane-1-sulfonate] | 480 nm | 620 nm |  |  | 
24 | CCCCCCN(CCCCCC)c1ccc(/C=C/C2=[N+](C)c3ccccc3C2(C)C)cc1.[I-] [CS0067] | 550 nm | 604 nm |  |  | 
25 | CCCCCCN(CCCCCC)c1ccc(/C=C/c2cc[n+](CCCC(=O)NCCOCCOCCOCCC(=O)O)cc2)cc1.[Br-] [CS0045, (E)-1-(1-Carboxy-13-oxo-3,6,9-trioxa-12-azahexadecan-16-yl)-4-(4-(dihexylamino)styryl)pyridin-1-ium chloride] | 480 nm | 622 nm |  |  | 
26 | CCCCCCN(CCCCCC)c1ccc(/C=C/c2cc[n+](CCCC(=O)NCCOCCOCCOCCC(=O)NCCCS(=O)(=O)[O-])cc2)cc1 [CS0048, (E)-21-(4-(4-(Dihexylamino)styryl)pyridin-1-ium-1-yl)-5,18-dioxo-8,11,14-trioxa-4,17-diazahenicos-ane-1-sulfonate] | 478 nm | 620 nm |  |  | 
27 | CCCCCCN(CCCCCC)c1ccc(/C=C/c2cc[n+](CCCC(=O)NCCOCCOCCOCCC(=O)OC(C)(C)C)cc2)cc1.[Br-] [CS0100, (E)-4-(4-(Dihexylamino)styryl)-1-(2,2-dimethyl-4,17-dioxo-3,7,10,13-tetraoxa-16-azaicosan-20-yl)pyridin-1-ium chloride] | 480 nm | 622 nm |  |  | 

Source: patent publication US11899021B2, “Luciferase-based thermal shift assays” (Promega Corporation, priority 2015, dated 2024)
